Measurements from patent publication US12528774B2, “Thiosemicarbazone compounds and uses thereof” (The Regents of the University of California, priority 2019, dated 2026).

What was measured:
[1] = tested on: normal human epithelial cell line HPDE; test: Proliferation assay in normal epithelial cell line HPDE; format: cell-based
Procedure: Serum copper levels are elevated (>20 μM) in individuals with solid tumor types such as pancreatic ductal adenocarcinoma (PDAC), small cell lung carcinoma (SCLC), and prostate cancer (PC). (Refs. 43-48). These cancers rely upon elevated copper levels to sustain growth, making this transition metal a viable target for therapeutic modulation. (Ref 34).
Proliferation assay: Cells were plated in 384-well plates (500 cells/well for adherent cell lines in 30 μl volume). Drugs were serially diluted to the desired concentrations and an equivalent volume of DMSO was added to vehicle control. Following 72 h incubation, ATP content was measured using CellTiter-Glo reagent according to manufacturer's instructions (Promega, CellTiter-Glo Luminescent Cell Viability Assay), and analyzed by SpectraMax luminometer (Molecular Devices). IC50 and IC90 values, concentrations required to inhibit proliferation by 50% and 90% respectively compared to DMSO treated cells, were calculated using Prism 6.0 h (Graphpad Software).

143 BTK ρ0 cells = test: Viability (trypan blue) and cell cycle in 143 BTK ρ0 cells; format: cell-based; conditions: HCT13 + 20 μM Cu(II), 48 hours
Procedure: FIG. 3A: Mito Stress Test of MIAPACA2 PDAC cells treated with HCT13 (25 nM)+Cu(II) (20 μM) for 24h. FIG. 3B: electron flow assay in isolated mitochondria treated with HCT-13 (100 nM)+Cu(II) (20 μM) for 1h. FIG. 3C: viability of 143 BTK parental (wild type, WT) and ρ0 cells after 48h of the indicated HCT13 concentration+Cu(II) (20 μM) treatment, assessed with Trypan Blue Staining. FIG. 3D: 48h cell cycle histogram and plots of S-phase arrest plots in 143 BTK WT and 143 BTK ρ0 cells at 24, 48 and 72h following treatment with indicated concentrations of HCT13+Cu(II)(20 μM). (mean±SD, n=2, one-way ANOVA corrected for multiple comparisons by Bonferroni adjustment, * P<0.05; ** P<0.01; *** P<0.001).
Another HCT compound, Dp44mT, was reported to increase AMPK expression and induce ROS, although its cytotoxicity was not attributed to the functionality of the mitochondria. (Ref 50). […] Both 143 BTK ρ0 and parental (wild type, WT) cells were treated with HCT13+20 μM Cu(II) for 48 hours, after which cell viability was determined through trypan blue staining (FIG. 3C).
Viability/Apoptosis assay: Viable cells were measured by Trypan blue staining using vi-cell counter (Beckman Coulter, CA, USA). […]
Cell cycle: Cell cycle was assessed using Propidium iodide staining at indicated timepoints. […]

CN(C)C(=S)N/N=C/c1nccc2cc(F)ccc12 (mixture of isomers) [HCT13, (E)-2-((6-Fluoroisoquinolin-1-yl)methylene)-N,N-dimethylhydrazine-1-carbothioamide and (Z)-2-((6-Fluoroisoquinolin-1-yl)methylene)-N,N-dimethylhydrazine-1-carbothioamide]
sensitivity of normal cells versus cancer models [1]: markedly more resistant
sensitivity of ρ0 cells compared to WT (viability) (143 BTK ρ0 cells): significantly less sensitive
